Assay results as given in the NIST ThermoML archive (doi:10.1016/j.jct.2007.04.002).

What was measured:
[1] = 101.33 kPa, Liquid, Not reported.
[2] = excess molar enthalpy (molar enthalpy of mixing); xn = mol fraction of the nth substance listed; details: 101 kPa, Liquid, Calvet calorimetry

CCCCCC(C)C [2-methylheptane]
[1]
Details	molar volume [m3/mol]
288.05 K	0.0001626
298.15 K	0.0001636

CCCCCC(C)C [2-methylheptane] + FC(F)(F)C(F)(F)C(F)(F)C(F)(F)C(F)(F)C(F)(F)F
excess molar enthalpy [kcal/mol], [2]
Details	288.05 K	298.15 K
x2 = 0	0	0
x2 = 0.05	0.124	0.129
x2 = 0.1	0.223	0.231
x2 = 0.15	0.3	0.313
x2 = 0.2	0.359	0.376
x2 = 0.25	0.404	0.425
x2 = 0.3	0.438	0.462
x2 = 0.35	0.462	0.488
x2 = 0.4	0.478	0.506
x2 = 0.45	0.488	0.516
x2 = 0.5	0.491	0.52
x2 = 0.55	0.488	0.516
x2 = 0.6	0.478	0.505
x2 = 0.65	0.461	0.487
x2 = 0.7	0.436	0.46
x2 = 0.75	0.401	0.422
x2 = 0.8	0.354	0.372
x2 = 0.85	0.293	0.307
x2 = 0.9	0.216	0.226
x2 = 0.95	0.119	0.124

C1CCCCC1 [cyclohexane]
Details	molar volume [m3/mol]
[1], 298.15 K	0.0001086

C1CCCCC1 [cyclohexane] + FC(F)(F)C(F)(F)C(F)(F)C(F)(F)C(F)(F)C(F)(F)F
Details	excess molar enthalpy [kcal/mol]
[2], 298.15 K, x2 = 0	0

CCCCCCC [heptane] + FC(F)(F)C(F)(F)C(F)(F)C(F)(F)C(F)(F)C(F)(F)F
Details	excess molar enthalpy [kcal/mol]
[2], 298.15 K, x2 = 0	0

FC(F)(F)C(F)(F)C(F)(F)C(F)(F)C(F)(F)C(F)(F)C(F)(F)F [hexadecafluoroheptane] + CCCCCC
[2], 298.15 K
Details	excess molar enthalpy [kcal/mol]
x1 = 0.05	0.15
x1 = 0.1	0.258
x1 = 0.15	0.335
x1 = 0.2	0.39
x1 = 0.25	0.429
x1 = 0.3	0.456
x1 = 0.35	0.474
x1 = 0.4	0.487
x1 = 0.45	0.495
x1 = 0.5	0.497
x1 = 0.55	0.495
x1 = 0.6	0.485
x1 = 0.65	0.467
x1 = 0.7	0.439
x1 = 0.75	0.4
x1 = 0.8	0.348
x1 = 0.85	0.281
x1 = 0.9	0.201
x1 = 0.95	0.107
x1 = 1	0

CCCCCC [hexane] + FC(F)(F)C(F)(F)C(F)(F)C(F)(F)C(F)(F)C(F)(F)C(F)(F)C(F)(F)F
Details	excess molar enthalpy [kcal/mol]
[2], 298.15 K, x2 = 0	0

CCCCCC [hexane] + FC(F)(F)C(F)(F)C(F)(F)C(F)(F)C(F)(F)C(F)(F)C(F)(F)F
Details	excess molar enthalpy [kcal/mol]
[2], 298.15 K, x2 = 0	0

CCCCCC [hexane] + FC(F)(F)C(F)(F)C(F)(F)C(F)(F)C(F)(F)C(F)(F)F
Details	excess molar enthalpy [kcal/mol]
[2], 298.15 K, x2 = 0	0

CCCCCC [hexane] + FC(F)(F)C(F)(F)C(F)(F)C(F)(F)C(F)(F)F
Details	excess molar enthalpy [kcal/mol]
[2], 293.15 K, x2 = 0	0

FC(F)(F)C(F)(F)C(F)(F)C(F)(F)C(F)(F)C(F)(F)C(F)(F)C(F)(F)F [octadecafluorooctane] + CCCCCC
[2], 298.15 K
Details	excess molar enthalpy [kcal/mol]
x1 = 0.05	0.183
x1 = 0.1	0.303
x1 = 0.15	0.379
x1 = 0.2	0.422
x1 = 0.25	0.445
x1 = 0.3	0.455
x1 = 0.35	0.456
x1 = 0.4	0.453
x1 = 0.45	0.448
x1 = 0.5	0.44
x1 = 0.55	0.43
x1 = 0.6	0.415
x1 = 0.65	0.394
x1 = 0.7	0.366
x1 = 0.75	0.327
x1 = 0.8	0.279
x1 = 0.85	0.22
x1 = 0.9	0.152
x1 = 0.95	0.0767
x1 = 1	0

CCCCCCCC [octane] + FC(F)(F)C(F)(F)C(F)(F)C(F)(F)C(F)(F)C(F)(F)F
Details	excess molar enthalpy [kcal/mol]
[2], 298.15 K, x2 = 0	0

CCCCC [pentane] + FC(F)(F)C(F)(F)C(F)(F)C(F)(F)C(F)(F)C(F)(F)F
Details	excess molar enthalpy [kcal/mol]
[2], 293.15 K, x2 = 0	0

FC(F)(F)C(F)(F)C(F)(F)C(F)(F)C(F)(F)C(F)(F)F [perfluorohexane]
Details	molar volume [m3/mol]
[1], 288.05 K	0.0001982

FC(F)(F)C(F)(F)C(F)(F)C(F)(F)C(F)(F)C(F)(F)F [perfluorohexane] + C1CCCCC1
[2], 298.15 K
Details	excess molar enthalpy [kcal/mol]
x1 = 0.05	0.177
x1 = 0.1	0.301
x1 = 0.15	0.385
x1 = 0.2	0.44
x1 = 0.25	0.475
x1 = 0.3	0.498
x1 = 0.35	0.513
x1 = 0.4	0.522
x1 = 0.45	0.528
x1 = 0.5	0.53
x1 = 0.55	0.528
x1 = 0.6	0.519
x1 = 0.65	0.503
x1 = 0.7	0.476
x1 = 0.75	0.436
x1 = 0.8	0.382
x1 = 0.85	0.311
x1 = 0.9	0.224
x1 = 0.95	0.12
x1 = 1	0

FC(F)(F)C(F)(F)C(F)(F)C(F)(F)C(F)(F)C(F)(F)F [perfluorohexane] + CCCCC
[2], 293.15 K
Details	excess molar enthalpy [kcal/mol]
x1 = 0.05	0.127
x1 = 0.1	0.225
x1 = 0.15	0.3
x1 = 0.2	0.357
x1 = 0.25	0.399
x1 = 0.3	0.431
x1 = 0.35	0.453
x1 = 0.4	0.467
x1 = 0.45	0.475
x1 = 0.5	0.476
x1 = 0.55	0.47
x1 = 0.6	0.457
x1 = 0.65	0.435
x1 = 0.7	0.405
x1 = 0.75	0.365
x1 = 0.8	0.315
x1 = 0.85	0.253
x1 = 0.9	0.18
x1 = 0.95	0.0954
x1 = 1	0

FC(F)(F)C(F)(F)C(F)(F)C(F)(F)C(F)(F)C(F)(F)F [perfluorohexane] + CCCCCC
[2], 298.15 K
Details	excess molar enthalpy [kcal/mol]
x1 = 0.05	0.133
x1 = 0.1	0.235
x1 = 0.15	0.313
x1 = 0.2	0.372
x1 = 0.25	0.416
x1 = 0.3	0.45
x1 = 0.35	0.473
x1 = 0.4	0.49
x1 = 0.45	0.5
x1 = 0.5	0.503
x1 = 0.55	0.5
x1 = 0.6	0.489
x1 = 0.65	0.469
x1 = 0.7	0.441
x1 = 0.75	0.401
x1 = 0.8	0.35
x1 = 0.85	0.285
x1 = 0.9	0.205
x1 = 0.95	0.11
x1 = 1	0

FC(F)(F)C(F)(F)C(F)(F)C(F)(F)C(F)(F)C(F)(F)F [perfluorohexane] + CCCCCC(C)C
[2], x1 = 1
Details	excess molar enthalpy [kcal/mol]
288.05 K	0
298.15 K	0

FC(F)(F)C(F)(F)C(F)(F)C(F)(F)C(F)(F)C(F)(F)F [perfluorohexane] + CCCCCCC
[2], 298.15 K
Details	excess molar enthalpy [kcal/mol]
x1 = 0.05	0.135
x1 = 0.1	0.24
x1 = 0.15	0.321
x1 = 0.2	0.382
x1 = 0.25	0.429
x1 = 0.3	0.463
x1 = 0.35	0.487
x1 = 0.4	0.504
x1 = 0.45	0.513
x1 = 0.5	0.516
x1 = 0.55	0.513
x1 = 0.6	0.503
x1 = 0.65	0.485
x1 = 0.7	0.459
x1 = 0.75	0.421
x1 = 0.8	0.371
x1 = 0.85	0.307
x1 = 0.9	0.225
x1 = 0.95	0.124
x1 = 1	0

FC(F)(F)C(F)(F)C(F)(F)C(F)(F)C(F)(F)C(F)(F)F [perfluorohexane] + CCCCCCCC
[2], 298.15 K
Details	excess molar enthalpy [kcal/mol]
x1 = 0.05	0.137
x1 = 0.1	0.24
x1 = 0.15	0.315
x1 = 0.2	0.368
x1 = 0.25	0.404
x1 = 0.3	0.428
x1 = 0.35	0.443
x1 = 0.4	0.452
x1 = 0.45	0.457
x1 = 0.5	0.458
x1 = 0.55	0.457
x1 = 0.6	0.452
x1 = 0.65	0.442
x1 = 0.7	0.426
x1 = 0.75	0.401
x1 = 0.8	0.363
x1 = 0.85	0.309
x1 = 0.9	0.234
x1 = 0.95	0.133
x1 = 1	0

FC(F)(F)C(F)(F)C(F)(F)C(F)(F)C(F)(F)F [perfluoropentane] + CCCCCC
[2], 293.15 K
Details	excess molar enthalpy [kcal/mol]
x1 = 0.05	0.127
x1 = 0.1	0.224
x1 = 0.15	0.298
x1 = 0.2	0.352
x1 = 0.25	0.392
x1 = 0.3	0.42
x1 = 0.35	0.439
x1 = 0.4	0.451
x1 = 0.45	0.456
x1 = 0.5	0.455
x1 = 0.55	0.449
x1 = 0.6	0.436
x1 = 0.65	0.416
x1 = 0.7	0.388
x1 = 0.75	0.352
x1 = 0.8	0.305
x1 = 0.85	0.248
x1 = 0.9	0.178
x1 = 0.95	0.0956
x1 = 1	0
